Laboratory results reported in patent publication US8378115B2, “Monomethine dyes” (Thermo Fisher Scientific (Milwaukee) LLC, priority 2007, dated 2013).

Key:
[1] = test system: λDNA; assay: Fluorescence enhancement of dye with λDNA; type: binding; settings: for Fluorescence relative to TO / Fluorescence λ DNA/ssDNA: 0.8 μM dye, 3.2 μM DNA, one minute; for Ratio λ DNA/ss: fluorescence λ DNA vs ss-DNA; for Relative Fluorescent Intensity: λ DNA, TO = 1.0
Procedure: (§1) Stock solutions (8 mM) of each dye were prepared by dissolving each compound in dimethylsulfoxide (DMSO). Stock dye solutions were diluted to a desired concentration in tris-EDTA (TE) buffer (10 mM Tris, 1 mM EDTA, pH 8.0) immediately prior to use.
(§2) Stock solutions of λDNA and 40mer synthetic oligonucleotides (dsDNA and ssDNA), each at a concentration of 40 μM, were prepared in TE buffer. All DNA concentrations described are in base pairs of nucleotides. The DNA stock solutions were diluted to a desired concentration in TE buffer before being mixed with diluted dye solutions.
(§3) Fluorescence enhancement measurements of each dye were obtained by incubating dyes with λDNA, 40mer dsDNA, or 40mer ssDNA at a final concentration of 0.8 μM dye and 3.2 μM DNA for one minute. Fluorescence scans of the samples were performed with excitation wavelengths corresponding to the absorption maxima of the dyes. The resulting fluorescence intensities were compared to fluorescence intensities of Thiazole Orange (TO) and a compound equivalent to SYBR Green without the side chain (V02-06101), shown below,
(§4) [drawing 15] binding to λDNA, 40mer dsDNA, or 40mer ssDNA at a final concentration of 0.8 μM TO and 3.2 μM DNA for one minute, the same as for the tested dyes. The discrimination ratio between dsDNA and ssDNA was calculated by comparing the fluorescence intensities.

[2] = Absorption spectra of dye alone; type: physicochemical; settings: for ε: in M-1·cm-1 (unit assumed)
Procedure: as §1
[…] […] Optical densities were determined at the absorbance maxima and the extinction coefficients were calculated using Beer's law.

[3] = test system: 40mer dsDNA; assay: Fluorescence enhancement of dye with 40mer dsDNA; type: binding; settings: for Relative Fluorescent Intensity: 40-mer ds-DNA, TO = 1.0; for Ratio ds/ss: fluorescence 40-mer ds-DNA vs ss-DNA
Procedure: as §1, §2, §3, §4

[4] = test system: 110 bp and 925 bp fragments from human β-actin gene, 309 bp fragment from human Survivin gene, 413 bp fragment from human integrin α5 gene; assay: qRT-PCR detection of longer PCR amplicons; type: biochemical; settings: 20 ng to 60 ng dye; 110, 309, 413, 925 bp amplicons
Procedure: Compound V02-07027 was also used to detect the formation of longer PCR amplicons using qRT-PCR: The following by fragments were used: 110 bp and 925 bp fragments from human β-actin gene, a 309 bp fragment from human Survivin gene, and a 413 bp fragment from human integrin α5 gene. Real time PCR was performed on a Stratagene® MX3000 (Stratagene, La Jolla Calif.) instrument using an excitation wavelength of 492 nm and an emission wavelength of 516 nm. Each amplification reaction (25 μl) contained 10 ng or 100 ng of human Genomic DNA, 200 μM of each dNTP, 1.5 mM MgCl2, 50 mM KCL, 10 mM Tris-HCl, 400 nM of each of forward and reverse primers, and 2.5 units of Taq DNA polymerase (Thermo Fisher Scientific (Milwaukee Wis.)). Varying amounts of V02-07027 or a dye such as SYBR® Green (Invitrogen) were added to the reaction mix. Reactions were performed in triplicate and the data points represented the average signal.

[5] = test system: rRNA; assay: Fluorescence of dye with rRNA; type: binding; settings: for Ratio rRNA/ds: fluorescence rRNA vs 40-mer ds-DNA; for Ratio rRNA/ss: fluorescence rRNA vs 40-mer ss-DNA
[6] = test system: RNA; assay: Low range RNA quantification by fluorescence; type: binding; settings: low range RNA assay
Procedure: Detecting and quantifying small amounts of RNA is important in many determinations such as quantitating in vitro transcription yields and quantitating RNA concentration before performing RNA containing assays. RNA is typically quantitated by determining absorbance at 260 nm (λ260), but disadvantages include protein interference, DNA absorbance, and the need for high concentration of RNA (>4 μg/ml). More sensitive fluorescence methods must be used to quantitate small amounts of RNA. A widely used RNA quantitation dye is RiboGreen® (Invitrogen), where 1 ng/ml of RNA can be detected and quantitated with a standard fluorometer, fluorescence microplate reader, or filter fluorometer.
In one embodiment, the V11-03001 compound may be used to quantitate RNA.

Compound	Fluorescence relative to TO [1]	Fluorescence λ DNA/ssDNA [1]	λex ([2]; Ethanol) [nm]	ε ([2]; Ethanol)	λex ([2]; TE Buffer, 8 μM dye) [nm]	ε ([2]; TE Buffer, 8 μM dye)	Ratio λ DNA/ss [1]	Relative Fluorescent Intensity [1]	Relative Fluorescent Intensity [3]	Ratio ds/ss [3]	binding to amplified DNA fragments [4]	Ratio rRNA/ds [5]	Ratio rRNA/ss [5]	fluorescence intensities versus RiboGreen [6]	relationship between fluorescence intensity and total RNA concentration ([6]; FIG. 10)	fluorescence enhancement among all the dyes studied ([1]; comparable to SYBR Green dye)	fluorescence enhancement when bound with RNA [5]
C[n+]1c(/C=C2\C=CN(c3ccccc3)c3ccccc32)sc2ccccc21 [Dye V02-06101, reference compound]	0.8	4.1	–	–	–	–	–	–	–	–	–	–	–	–	–	–	–
CCN(CC)c1ccc2c(C=C3Sc4ccccc4N3CC)cc(C(C)(C)C)[o+]c2c1 [Dye V02-06124]	0.5	1.6	530	85,000	515	46,625	1.6	0.5	0.3	1.2	–	–	–	–	–	–	–
CCN1C(=Cc2cc(-c3ccccc3)[o+]c3cc(OC)ccc23)Sc2ccccc21 [Dye V02-06132]	None	None	488	43,000	480	18,850	–	–	–	–	–	–	–	–	–	–	–
CCN1C(=Cc2cc(-c3ccccc3)[o+]c3cc(OC)ccc23)Oc2ccccc21 [Dye V02-06135]	None	None	464	43,000	–	–	–	–	–	–	–	–	–	–	–	–	–
CCN(CC)c1ccc2c(C=C3Oc4ccccc4N3CC)cc(C(C)(C)C)[o+]c2c1 [Dye V02-06136]	0.17	1	499	72,000	492	35,925	1	0.17	0.3	1.8	–	–	–	–	–	–	–
CCN(CC)c1ccc2c(/C=C3\Sc4ccccc4N3CC)cc(-c3ccccc3)[o+]c2c1 [Dye V02-06187]	0.7	6.7	550	55,000	524	19,668	5.2	0.7	0.5	2.1	–	–	–	–	–	–	–
CCN(CCCN(C)C)c1ccc2c(/C=C3\Sc4ccccc4N3CC)cc(C(C)(C)C)[o+]c2c1 [Dye V02-07015]	4.0	3.7	522	50,000	515	37,365	3.7	4.0	4.0	2.3	–	–	–	–	–	–	–
CCN(CC)c1ccc2c(/C=C3\Sc4ccccc4N3C)cc(N(C)CCCN(C)C)[o+]c2c1 [Dye V02-07027]	3.6	2.8	477	60,000	475	39,987	2.8	3.6	5.3	2.6	bound to amplified DNA fragments, generating a fluorescent signal	–	–	–	–	–	–
CCN(CC)c1ccc2c(N(C)CCCN(C)C)cc(/C=C3\Sc4ccccc4N3C)[o+]c2c1 [Dye V02-07108]	3.1	1.8	498	46,000	496	27,418	1.9	3.1	3.5	1.4	–	0.8	1.1	–	–	–	–
CCN(CC)c1ccc2c(/C=C3\Sc4ccccc4N3C)cc(N(C)CCC[N+](C)(C)C)[o+]c2c1 [Dye V11-02190]	–	–	481	25,600	477	16,940	3.1	1.9	1.7	1.9	–	0.7	1.4	–	–	–	–
CCN(CC)c1ccc2c(/C=C3\Sc4ccccc4N3C)cc(N3CC[N+](C)(CCO)CC3)[o+]c2c1 [Dye V11-03001]	–	–	490	95,000	487	65,269	1.8	8.7	11.1	1.7	–	0.6	1.0	comparable to those using RiboGreen®	linear relationship	strongest fluorescence enhancement	significant fluorescence enhancement
CCN1c2cc3[o+]c(N(C)CCCN(C)C)cc(/C=C4\Sc5ccccc5N4C)c3cc2C(C)=CC1(C)C [Dye V12-02144]	3.6	2.8	492	49,000	484	28,355	2.0	1.7	2.7	2.1	–	0.7	1.5	–	–	–	–
CCN(CC)c1ccc2c(c1)O/C(=C\c1cc(N(C)CCCN(C)C)[o+]c3cc(N(CC)CC)ccc13)C=C2C [Dye V13-01026]	0.9	1.4	585	48,000	543	25,013	1.4	0.9	1.0	0.7	–	–	–	–	–	–	–
CCN(CC)c1ccc2c(/C=C3\Sc4ccccc4N3C)cc(N3CCN(CCO)CC3)[o+]c2c1 [Dye V13-01184]	5.3	6.1	480	83,000	455	40,321	2.0	5.3	6.1	1.4	–	1.0	1.4	–	–	–	significant fluorescence enhancement
CCCN(CCCN(C)C)C1=C/C(=C\c2sc3ccccc3[n+]2C)c2ccccc2N1c1ccccc1 [SYBR Green, reference compound]	10.6	8.3	–	–	494	73,000	8.3	10.6	15.0	7.5	–	0.3	1.0	–	–	–	–
CN1C(=Cc2cc[n+](C)c3ccccc23)Sc2ccccc21 [TO, Thiazole Orange, reference compound]	1	3.3	501	77,000	501	52,773	5.6	1.0	1.0	3.5	–	0.8	2.3	–	–	–	–
